These results are taken from patent US20140023611A1 (priority 2010, published 2014).

Usually AUC stands for concentration integrated over time. A lower AUC goes with less exposure. As usually defined, the Cmax is the highest concentration seen after dosing.

Data set [1] in a line: Stability of compounds in simulated intestinal fluid (SIF). The data set is classed as in vitro ADME. Particulars: simulated intestinal fluid (3 mg/mL pancreatin), incubation time 6 hr, relative to t=0. The method, boiled down:
(§1)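 Compounds at […] were incubated 3 or 6 hr in USP simulated gastric fluid with 3 mg/mL pepsin or simulated intestinal fluid with 3 mg/mL pancreatin. Remaining compound was quantified by HPLC-UV or HPLC-MS peak area % and reported as percent of the t=0 level in the same medium.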

The nature of data set [2]: Stability of compounds in simulated gastric fluid (SGF). The data set is classed as in vitro ADME. Particulars: simulated gastric fluid (3 mg/mL pepsin), incubation time 6 hr, relative to t=0. Put shortly:
as §1

The next data set addresses T1, rat NaP2b (SLC34A2) (Rattus norvegicus, UniProt Q9JJ09).
T1 construct: host or cells: HEK293
T1 sequence (Q9JJ09 1-695): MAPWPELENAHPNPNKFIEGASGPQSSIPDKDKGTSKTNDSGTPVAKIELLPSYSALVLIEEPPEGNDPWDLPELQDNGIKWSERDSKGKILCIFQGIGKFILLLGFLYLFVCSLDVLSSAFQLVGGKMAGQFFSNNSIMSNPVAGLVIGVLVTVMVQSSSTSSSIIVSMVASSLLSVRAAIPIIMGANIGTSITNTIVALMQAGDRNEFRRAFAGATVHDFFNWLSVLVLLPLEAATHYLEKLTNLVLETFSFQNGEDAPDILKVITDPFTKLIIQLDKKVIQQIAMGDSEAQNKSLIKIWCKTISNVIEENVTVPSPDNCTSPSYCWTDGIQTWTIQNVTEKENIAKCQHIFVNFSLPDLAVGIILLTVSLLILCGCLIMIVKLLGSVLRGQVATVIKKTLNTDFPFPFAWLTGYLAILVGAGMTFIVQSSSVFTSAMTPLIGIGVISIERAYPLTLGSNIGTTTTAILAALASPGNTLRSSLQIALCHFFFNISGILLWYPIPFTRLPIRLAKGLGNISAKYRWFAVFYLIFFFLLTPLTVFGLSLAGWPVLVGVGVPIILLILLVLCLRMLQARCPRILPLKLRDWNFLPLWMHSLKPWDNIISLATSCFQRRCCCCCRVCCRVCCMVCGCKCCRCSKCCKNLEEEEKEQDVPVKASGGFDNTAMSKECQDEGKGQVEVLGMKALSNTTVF
The data set can be described thus: Inhibition of NaP2b-mediated Pi (33P) uptake in transfected HEK293 cells, rat NaP2b. The following applies: 33P Pi uptake, 0.1 mM phosphate, value given as pIC50 range. The data set is classed as cell-based. Put shortly:
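The cells transiently expressed NaP2b after Lipofectamine transfection. Each compound was run in duplicate over twelve concentrations, 0.1 nM–30 uM.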

Data set [3] is described as follows: Determination of compound Cmax and AUC after oral gavage (plasma LC-MS/MS). It counts as in vivo, Sprague-Dawley rats. The following applies: Sprague-Dawley, rat, plasma, po, Structure (I) examples. The method, boiled down:
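Plasma exposure measured by LC-MS/MS after acetonitrile precipitation with internal standard, quantified against a standard curve made in plasma. Compound given orally by gavage to Sprague-Dawley rats at nominal 2.5 or 10 mg/kg, with K2EDTA plasma sampled at 0.5, 1, 2 and 4 h.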

The target of a further data set is T2, human NaP2b (SLC34A2) (Homo sapiens, UniProt O95436).
T2 construct: host or cells: HEK293
T2 sequence (O95436 1-690): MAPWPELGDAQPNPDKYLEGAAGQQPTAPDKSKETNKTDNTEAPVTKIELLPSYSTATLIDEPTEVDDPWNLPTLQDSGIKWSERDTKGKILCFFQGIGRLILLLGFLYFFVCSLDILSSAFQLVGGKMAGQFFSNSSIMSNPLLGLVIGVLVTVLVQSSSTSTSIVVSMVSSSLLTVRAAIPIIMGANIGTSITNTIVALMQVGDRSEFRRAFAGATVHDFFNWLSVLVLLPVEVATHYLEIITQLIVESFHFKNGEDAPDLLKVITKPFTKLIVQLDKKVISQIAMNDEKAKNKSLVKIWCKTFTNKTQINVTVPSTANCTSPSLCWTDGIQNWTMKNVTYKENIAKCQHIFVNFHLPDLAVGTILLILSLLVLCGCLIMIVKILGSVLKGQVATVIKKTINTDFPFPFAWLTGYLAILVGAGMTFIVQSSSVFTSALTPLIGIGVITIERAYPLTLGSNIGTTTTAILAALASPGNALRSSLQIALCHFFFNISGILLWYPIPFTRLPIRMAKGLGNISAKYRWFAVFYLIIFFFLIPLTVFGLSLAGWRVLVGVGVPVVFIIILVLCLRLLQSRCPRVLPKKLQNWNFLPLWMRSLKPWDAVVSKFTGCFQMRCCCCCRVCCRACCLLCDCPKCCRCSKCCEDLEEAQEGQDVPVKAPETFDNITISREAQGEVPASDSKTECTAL
The data set can be described thus: Inhibition of NaP2b-mediated Pi (33P) uptake in transfected HEK293 cells, human NaP2b. It counts as cell-based. Particulars: read-out: pIC50 range for human NaP2b (converted). Put shortly: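 Uptake of 33P-phosphate (100 uM KH2PO4 carrier, sodium vs choline buffer, pH 7.4) measured after 3-30 min at room temperature, with test compound at twelve concentrations from 0.1 nM to 30 uM in duplicate. Cells were HEK293 transfected with mutated human NaP2b (Thr insertion after 37, N39D) and treated with a PiT-silencing agent. pIC50 values from scintillation counts.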

Where [4] appears, read: Table 15, actual oral dose 3-15 mg/kg, plasma 0.5-4 h.
[5] abbreviates: Table 15, actual oral dose 15-40 mg/kg, plasma 0.5-4 h.

As for `CCN(CC)c1ccc(NC(=O)c2cccc(CSCCOCCOCCOCCOCCC(=O)NC(CO)(CO)CO)c2)c(-c2cc(C(=O)N[C@H]3CCCc4ccccc43)ccn2)c1` [Example 158, (S)-2-(5-(diethylamino)-2-(3-(20-hydroxy-19,19-bis(hydroxymethyl)-17-oxo-5,8,11,14-tetraoxa-2-thia-18-azaicosyl)benzamido)phenyl)-N-(1,2,3,4-tetrahydronaphthalen-1-yl)isonicotinamide], the “% remaining, SIF” value in data set [1] is 20-40%. In data set [2], the “% remaining, SGF” value was greater than 80%. The IC50 at rat NaP2b (SLC34A2) and on human NaP2b (SLC34A2) was less than 1000 nM in each case. The compound also showed an AUC in data set [3] (setting [4]) of less than 10 ng·h/mL. The Cmax in data set [3] (setting [4]) is less than 10 ng/mL.

As to `CCN(CC)c1ccc(NC(=O)c2cccc(CSCCOCCOCCOCCOCCC(=O)N(CCO)CCO)c2)c(-c2cc(C(=O)N[C@H]3CCCc4ccccc43)ccn2)c1` [Example 160, (S)-2-(5-(diethylamino)-2-(3-(20-hydroxy-18-(2-hydroxyethyl)-17-oxo-5,8,11,14-tetraoxa-2-thia-18-azaicosyl)benzamido)phenyl)-N-(1,2,3,4-tetrahydronaphthalen-1-yl)isonicotinamide], the “% remaining, SIF” value in data set [1] was 40-60%. For the same compound, the “% remaining, SGF” value in data set [2] is given as greater than 80%. In addition, the IC50 at rat NaP2b (SLC34A2) and at human NaP2b (SLC34A2) was less than 1000 nM each time. The compound further returned an AUC in data set [3] (setting [4]) of less than 10 ng·h/mL. The compound further yielded a Cmax in data set [3] (setting [4]) of less than 10 ng/mL.

Consider `CCN(CC)c1ccc(NC(=O)c2cccc(COCCOCCOCCOCCOCCOCCO)c2)c(-c2cc(C(=O)NCc3cccc(C(F)(F)F)c3)ccn2)c1` [Example 168, 2-(5-(diethylamino)-2-(3-(19-hydroxy-2,5,8,11,14,17-hexaoxanonadecyl)benzamido)phenyl)-N-(3-(trifluoromethyl)benzyl)isonicotinamide], for which, in data set [1], the “% remaining, SIF” value is greater than 80%. Besides, the “% remaining, SGF” value in data set [2] is reported as greater than 80%. Besides, the IC50 at rat NaP2b (SLC34A2) was less than 1000 nM. In addition, in data set [3] (setting [4]), the area under the curve (AUC) is less than 30 ng·h/mL and the Cmax is less than 10 ng/mL. For the same compound, at human NaP2b (SLC34A2), the IC50 was less than 1000 nM.

With `CCN(CC)c1ccc(NC(=O)c2cccc(C(=O)N(C)CCN3CCC[C@H]3C(=O)NCCOCCOCCOCCOCCOCCOCCOCCOC)c2)c(-c2cc(C(=O)N[C@H]3CCCc4ccccc43)ccn2)c1` [Example 196, N^1-(2-((S)-2-(2,5,8,11,14,17,20,23-octaoxapentacosan-25-ylcarbamoyl)pyrrolidin-1-yl)ethyl)-N^3-(4-(diethylamino)-2-(4-(((S)-1,2,3,4-tetrahydronaphthalen-1-yl)carbamoyl)pyridin-2-yl)phenyl)-N-methylisophthalamide], the “% remaining, SIF” value in data set [1] is given as greater than 80%. Further, the “% remaining, SGF” value in data set [2] was greater than 80%. For the same compound, the IC50 at rat NaP2b (SLC34A2) was 1000 to 7940 nM. In addition, in data set [3] (setting [4]), the area under the curve (AUC) is greater than 50 ng·h/mL and the highest concentration (Cmax) was greater than 50 ng/mL. In addition, the IC50 on human NaP2b (SLC34A2) was 1000 to 7940 nM.

Consider `CN(CCOCCOCCOCCC(=O)O)C(=O)Cc1cccc(SCc2cccc(C(=O)Nc3ccc(Cl)cc3-c3cc(C(=O)N[C@H]4CCCc5ccccc54)ccn3)c2)c1` [Example 239, (S)-1-(3-(3-(4-chloro-2-(4-(1,2,3,4-tetrahydronaphthalen-1-ylcarbamoyl)pyridin-2-yl)phenylcarbamoyl)benzylthio)phenyl)-3-methyl-2-oxo-6,9,12-trioxa-3-azapentadecan-15-oic acid], for which the “% remaining, SIF” value in data set [1] is listed as greater than 80%. Moreover, the “% remaining, SGF” value in data set [2] is 60-80%. The IC50 on rat NaP2b (SLC34A2) and on human NaP2b (SLC34A2) was less than 1000 nM in each case. This compound gave an AUC in data set [3] (setting [5]) of less than 30 ng·h/mL. Moreover, in data set [3] (Table 15, plasma 0.5-4 h), the Cmax was less than 30 ng/mL.

For `O=C(O)CCOCCOCCOCCOCCCc1cccc(C(=O)Nc2ccc(Cl)cc2-c2cc(C(=O)N[C@H]3CCCc4ccccc43)ccn2)c1` [Example 253, (S)-16-(3-(4-(chloro)-2-(4-(1,2,3,4-tetrahydronaphthalen-1-ylcarbamoyl)pyridin-2-yl)phenylcarbamoyl)phenyl)-4,7,10,13-tetraoxahexadecan-1-oic acid], the “% remaining, SIF” value in data set [1] is recorded as greater than 80%. The “% remaining, SGF” value in data set [2] is given as 60-80%. Further, the IC50 at rat NaP2b (SLC34A2) and at human NaP2b (SLC34A2) was less than 1000 nM throughout. Further, the AUC in data set [3] (setting [5]) was less than 10 ng·h/mL. In data set [3] (Table 15, plasma 0.5-4 h), the Cmax was less than 10 ng/mL.
